Test results taken from patent US11028051B2, “Tetrahydroquinoline-based bromodomain inhibitors” (St. Jude Children's Research Hospital, priority 2016, dated 2021).
pEC50, pKd: −log10 of the molar value. Read-outs that look alike come from different tables or passages of the source.

Legend:
BRD2-BD1 = BRD2-BD1 (Homo sapiens (Human), UniProt P25440); assay: competitive TR-FRET assay, BET-BD with acetylated peptide ligand; assay type: binding; settings: read-out: EC50 (μM) BRD2(1)
Method: (§1) Inhibitor potency was determined using a competitive TR-FRET assay as detailed herein, measuring interaction of the respective BET-BD with an acetylated peptide ligand (Table 2).

BRD2-BD2 = BRD2-BD2 (Homo sapiens (Human), UniProt P25440); assay: as above; assay type: binding; settings: read-out: EC50 (μM) BRD2(2)
Method: as §1

BRDT = BRDT (Homo sapiens, UniProt Q58F21); assay: as above; assay type: binding
Method: as §1

HDMB03 cells = assay: cell viability, CellTiter-Glo; assay type: cell-based, human; settings: read-out: EC50 (μM) HDMB03
Outline: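 Medulloblastoma cells grown as neurospheres in supplemented neurobasal medium and treated for 7 days; viability read by CellTiter-Glo luminescence. Log10-transformed signal normalized to negative and positive controls; median percent inhibition of triplicates fitted with a four-parameter log-logistic model.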

Loucy = assay: anti-proliferative activity; assay type: cell-based; settings: Table 5
Method: (§2) After 7 days of treatment, an equal volume of CellTiter-Glo reagent (G7572, Promega) was added and the luminescence signal was measured using an automated Envision plate reader (Perkin-Elmer). Luminescence data were normalized by log10 transformation prior to calculating the percent inhibition using the following equation:
(§3) 100*(negative control mean −compound value)/(negative control mean −positive control mean).

NALM-16 = assay: anti-proliferative activity; assay type: cell-based; settings: Table 5
Method: as §2, §3

SEM cells = assay: anti-proliferative activity; assay type: cell-based; settings: Table 5
Method: as §2, §3

[1] = system: c-Myc expression in HDMB03 cells; assay: c-Myc expression inhibition, high content microscopy (HCM); assay type: cell-based, human; settings: read-out: EC50 (μM) Myc-inhibition
BRD2(1) = BRD2(1) (Homo sapiens (Human), UniProt P25440); assay: BROMOscan KD determination; assay type: binding; settings: Table 10
Outline: (§4)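 First, each compound is screened at 1 μM in a BROMOscan competitive binding experiment covering about 42 bromodomains, compared with a control. Then, KD is determined for selected bromodomains in a follow-up BROMOscan run.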

BRD2(2) = BRD2(2) (Homo sapiens (Human), UniProt P25440); assay: BROMOscan KD determination; assay type: binding; settings: BROMOscan, Table 10
Outline: as §4

BRDT(1) = BRDT(1) (Homo sapiens (Human), UniProt Q58F21); assay: BROMOscan KD determination; assay type: binding; settings: Table 10
Outline: as §4

BRDT(2) = BRDT(2) (Homo sapiens (Human), UniProt Q58F21); assay: BROMOscan KD determination; assay type: binding; settings: BROMOscan, Table 10
Outline: as §4

BRD3(1) = BRD3(1) (Homo sapiens (Human), UniProt Q15059); assay: BROMOscan KD determination; assay type: binding; settings: Table 10
Excerpt: (§5) DiscoverX® can screen compounds against all ˜42 bromodomains (a service called BROMOscan) and perform follow-up KD determination. This service is considered the industrial standard for bromodomain inhibitor comparisons.

BRD3(2) = BRD3(2) (Homo sapiens (Human), UniProt Q15059); assay: BROMOscan KD determination; assay type: binding; settings: BROMOscan, Table 10
Excerpt: as §5

all ~42 bromodomains = assay: BROMOscan competitive binding experiment at a single concentration; settings: 1 μM, FIG. 4
Excerpt: DiscoverX® can screen compounds against all ˜42 bromodomains (a service called BROMOscan) and perform follow-up KD determination. This service is considered the industrial standard for bromodomain inhibitor comparisons. […] Dots are symbolic of inhibition of the compound at this concentration; the larger the size of the dot, the greater the activity of the compound. […] Though these compounds are selective for the BET family, the selectivity within the BET family is poor. The results of a competitive binding experiment between compounds 19 (left), 41 (center), and 56 (right) (at a single concentration, 1 μM) and a control for each of the bromodomains are shown in FIG. 5.

Sequence of BRD2-BD1 (P25440 74-180): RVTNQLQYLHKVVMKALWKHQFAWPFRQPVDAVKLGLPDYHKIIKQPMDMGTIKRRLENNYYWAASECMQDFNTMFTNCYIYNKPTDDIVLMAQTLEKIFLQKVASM
Sequence of BRD2-BD2 (P25440 344-453): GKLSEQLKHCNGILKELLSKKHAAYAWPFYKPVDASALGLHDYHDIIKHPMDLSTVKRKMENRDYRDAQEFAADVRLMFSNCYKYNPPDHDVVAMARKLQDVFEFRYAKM
Sequence of BRD3(1) (Q15059 34-140): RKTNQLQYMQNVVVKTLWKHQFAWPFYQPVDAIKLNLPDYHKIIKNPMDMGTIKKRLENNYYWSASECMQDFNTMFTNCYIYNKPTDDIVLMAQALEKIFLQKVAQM
Sequence of BRD3(2) (Q15059 306-415): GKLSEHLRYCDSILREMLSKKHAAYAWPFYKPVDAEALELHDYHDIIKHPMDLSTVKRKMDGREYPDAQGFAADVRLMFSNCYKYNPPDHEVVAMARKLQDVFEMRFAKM
Sequence of BRD2(1) (P25440 74-180): as the sequence (P25440 74-180) above
Sequence of BRD2(2) (P25440 344-453): as the sequence (P25440 344-453) above

`CC(=O)N1c2ccc(-c3ccc(C(=O)O)cc3)cc2[C@H](Nc2ccc(Cl)cc2)C[C@@H]1C` [GSK-726, IBET-726, reference compound] was tested, and the EC50 (BRD2-BD1; Table 4) was 1 µM, the EC50 (BRD2-BD1; Table 6) was 1.3 µM and the EC50 (BRD2-BD1; Table 8) was 1.3 µM. It also gave an EC50 (BRD2-BD2; Table 4) of 0.057 µM, an EC50 (BRD2-BD2; Table 6) of 0.19 µM and an EC50 (BRD2-BD2; Table 8) of 0.19 µM. The pEC50 (BRDT; Table 4, read-out: BRDT EC50) was 5.28, the pEC50 (BRDT; Table 6, head names no target, BRDT by comparison with Table 4, read-out: EC50) was 5.26 and the pEC50 (BRDT; Table 8, head names no target, BRDT by comparison with Table 4, read-out: EC50) was 5.26. The EC50 (HDMB03 cells; Table 5) was 5.77 µM, the EC50 (HDMB03 cells; Table 7) was 0.95 µM and the EC50 (HDMB03 cells; Table 9, cancer cell proliferation inhibition) was 0.95 µM. The EC50 (Loucy) was 0.33 µM, the EC50 (NALM-16) was 0.23 µM and the EC50 (SEM cells) was 0.02 µM. For the same compound, the EC50 ([1]; Table 5) was 0.17 µM, the EC50 ([1]; Table 7) was 1.5 µM and the EC50 ([1]; Table 9, c-Myc expression inhibition in HDMB03 cells) was 1.5 µM. For the same compound, the pKd (BRD2(1)) was 8.33, the pKd (BRD2(2)) was 9.70 and the pKd (BRDT(1)) was 8.35. It also gave a pKd (BRDT(2)) of 9.05, a pKd (BRD3(1)) of 8.51 and a pKd (BRD3(2)) of 9.70. For the same compound, the “activity across bromodomain families” value (all ~42 bromodomains) was “activity only versus the BET family”.
